Data as given in US20240002474A1, “Systems and Methods for Diagnostic Assessment and Treatment of Insulin Resistance and Hyperglycemia” (The Board of Trustees of the Leland Stanford Junior …, priority 2020, published 2024).

How the values were obtained:
[1] = tested on: HepaRG hepatocytes; assay: Mitochondrial insulin stimulation test (MIST), oxygen consumption rate in HepaRG hepatocytes; assay type: cell-based, human; conditions: for insulin-dependent mitochondrial respiration / maximal respiration (FCCP uncoupling): HepaRG, 10-minute pretreatment with peptide (10 μM) before exposure to IR or T2D patient serum, vs cells without peptide
Procedure: Mitochondrial Insulin Stimulation Test. HepaRG hepatocytes or skeletal muscle cells were plated at 40,000 cells/well in Seahorse XF96 plate (Agilent) the day before the assay. Cells were serum starved by culturing in respective media without serum or growth factor supplements. Individual serum was diluted 1:100 in supplement-free media and cells were incubated with media containing individual serum for 4 hours. Cells were washed three times with PBS and incubated with seahorse assay media (buffer free RPMI with mM glucose, mM sodium pyruvate and mM glutamine) for 1 hour in a CO2 free incubation at 37° C. Seahorse measurements were performed every 5 minutes with mixing. Mitochondrial function was perturbed by administration of insulin (100 nM), oligomycin (1 μM), FCCP (2 μM), and rotenone and antimycin A (1 μM). Data was processed by normalizing basal respiration to zero and the maximal respiration following FCCP administration of the positive control (no serum exposure with insulin stimulation) to 1.
IgG purification and fragmentation. IgG purified from serum was diluted (1:100) in Protein G binding buffer (Thermo) and incubated with Protein G Agarose Beads (Thermo) for 4 hours on an orbital shaker at 4° C. Beads were washed three times with Protein G binding buffer and IgG was eluted by incubated beads in Protein G elution buffer, pH 2.7 for 5 minutes, centrifuged and the supernatant was quenched with Tris-HCl buffer, pH 9.0. Purified IgG was buffer exchanged to using 15 kDa spin column to PBS. Purification was validated by immunoblotting. Fab fragments were generated by papain cleavage using Pierce […] (Thermo Scientific) according to manufacturer's protocol.
Peptide Synthesis. SYN746 (QRFCTGHFGGLYPCHGP; SEQ ID NO: 1) and HIV TAT conjugated FcRn C-terminal tail-dominant negative ([…]; SEQ ID Nos: 2 and 3) were synthesized using Fmoc solid phase peptide synthesis and purified using preparative HPLC using aC18 reverse-phase column and characterized by liquid-chromatography mass spectrometry by University of Minnesota Peptide Synthesis Core.

[2] = target: FcRn (Homo sapiens, UniProt P55899); conditions: previously published peptide; similar to IgG; cited from earlier work
Chain of FcRn (P55899 24-297 limits assumed): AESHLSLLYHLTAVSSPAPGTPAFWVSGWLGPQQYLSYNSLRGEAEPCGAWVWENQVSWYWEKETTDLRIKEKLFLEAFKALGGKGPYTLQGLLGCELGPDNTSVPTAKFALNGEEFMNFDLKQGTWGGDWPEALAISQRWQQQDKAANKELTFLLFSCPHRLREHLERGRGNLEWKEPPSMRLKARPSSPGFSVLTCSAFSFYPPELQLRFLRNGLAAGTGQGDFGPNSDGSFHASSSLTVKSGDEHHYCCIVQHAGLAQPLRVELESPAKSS
Chain of FcRn (P61769 21-119 partner): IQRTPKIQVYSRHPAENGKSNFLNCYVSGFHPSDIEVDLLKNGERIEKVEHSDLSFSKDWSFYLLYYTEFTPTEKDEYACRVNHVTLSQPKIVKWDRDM

| Sequence | insulin-dependent mitochondrial respiration [1] | maximal respiration (FCCP uncoupling) [1] | mitochondrial function or insulin stimulation in control cells ([1]; HepaRG control cells, 10-minute pretreatment) | binding to FcRn [2] |
| --- | --- | --- | --- | --- |
| YGRKKRRQRRRGAPWISLRGDDTGVLLPTP [dominant negative] | significant rescue | significant rescue |  |  |
| QRFCTGHFGGLYPCHGP (listed as Homo sapiens) [SYN746] | dramatic rescue | dramatic rescue | did not affect | pH-sensitive binding |
